The source of these data is PubChem BioAssay (NCI).

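Tested at 5 concentrations; 48 h exposure; 96-well plates; endpoints linearly interpolated, else capped at highest concentration. Abbreviation: GI50, concentration required for 50% inhibition of growth. The concentration for full growth arrest is given as TGI.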 Some results are limits rather than exact numbers.

Some test systems named below: ACHN renal; SW-620 colon; OVCAR-5 ovarian; RPMI-8226 leukemia; EKVX NSCLC; NCI-H23 lung; MDA-MB-231 breast; CAKI-1 renal; UACC-257 melanoma.
What all share (experiment): growth of human tumour cells (NCI), 48 h

As to `Cc1cc(C(=O)CC(Cl)=C(Cl)Cl)c(Cl)cc1Cl`, the GI50 is 18.1 µM in the assay on ACHN renal; 21.7 µM in the assay on SW-620 colon; 29.8 µM in the assay on OVCAR-5 ovarian; 16.6 µM in the assay on RPMI-8226 leukemia; 19 µM with EKVX NSCLC; 18.6 µM in the assay on NCI-H23 lung. In addition, the GI50 is 23.4 µM with MDA-MB-231 breast, 18 µM with CAKI-1 renal and 19.5 µM with UACC-257 melanoma. Moreover, the TGI in the assay with ACHN renal was determined as 39.4 µM; in the assay with SW-620 colon, 52.3 µM; in the assay with OVCAR-5 ovarian, 79.8 µM; with RPMI-8226 leukemia, 40.8 µM; in the assay on EKVX NSCLC it was 47.7 µM; in the assay with NCI-H23 lung, 37.9 µM. Besides, the TGI in the assay with MDA-MB-231 breast worked out at 46.2 µM; in the assay with CAKI-1 renal it was 41.4 µM; with UACC-257 melanoma it was 44.9 µM.
Turning to `Nc1nc(N)c(CCCCc2ccccc2)c(/C=C/c2ccc([N+](=O)[O-])cc2)n1`, the TGI is 18.2 µM with ACHN renal; 5.91 µM in the assay on SW-620 colon; 15.8 µM in the assay on OVCAR-5 ovarian; 19 µM with RPMI-8226 leukemia; greater than 100 µM in the assay with EKVX NSCLC; 33.4 µM in the assay with NCI-H23 lung. Moreover, the values for the TGI with CAKI-1 renal and with UACC-257 melanoma were 31.6 µM and 22.2 µM, respectively.
In the case of `CCCCCCCCC1C(C)c2c([nH]c3ccccc23)C2C(=O)N(c3ccccc3)C(=O)C21` (centres undefined), the TGI was determined as 23.7 µM in the assay on ACHN renal; 41.5 µM in the assay on SW-620 colon; 33.6 µM in the assay with OVCAR-5 ovarian; 12.9 µM in the assay with RPMI-8226 leukemia; 51.1 µM in the assay with EKVX NSCLC; 14.7 µM in the assay with NCI-H23 lung. The same molecule gave a TGI in the assay with CAKI-1 renal of 27.5 µM.
Turning to `C=C1CCCC2OC(OC)CCC12` (centres undefined), the TGI in the assay on ACHN renal, in the assay on SW-620 colon, with OVCAR-5 ovarian, with RPMI-8226 leukemia, in the assay on EKVX NSCLC and in the assay with NCI-H23 lung was greater than 100 µM throughout. For the same molecule, the TGI in the assay on CAKI-1 renal and in the assay with UACC-257 melanoma was greater than 100 µM each time.
Regarding `C=C(C)C1CC=C(C)C(O)([C@@]2(O)C[C@H](C(=C)C)CC=C2C)C1` (some centres undefined), the TGI is 47.7 µM in the assay with ACHN renal; greater than 100 µM in the assay with SW-620 colon; 63.5 µM in the assay on OVCAR-5 ovarian; 48.7 µM in the assay with RPMI-8226 leukemia; 43.3 µM with NCI-H23 lung; 51.8 µM in the assay on CAKI-1 renal. Moreover, the TGI in the assay with UACC-257 melanoma stood at 42.8 µM.
As to `CC1(C)C2=CCCC(=O)[C@@]2(C)CC[C@@H]1O`, the TGI with ACHN renal, in the assay with SW-620 colon, with OVCAR-5 ovarian, in the assay with RPMI-8226 leukemia, with EKVX NSCLC and in the assay with NCI-H23 lung was greater than 100 µM each time. Besides, the TGI in the assay with CAKI-1 renal and in the assay on UACC-257 melanoma was greater than 100 µM throughout.
As for `CC1(C)C=C(N2CCN(C3=CC(C)(C)NC(C)(C)C3)CC2)CC(C)(C)N1`, the TGI in the assay on ACHN renal, with SW-620 colon, in the assay on OVCAR-5 ovarian, with RPMI-8226 leukemia, in the assay with EKVX NSCLC and in the assay with NCI-H23 lung was greater than 100 µM each time. Moreover, the TGI in the assay on CAKI-1 renal and in the assay on UACC-257 melanoma was greater than 100 µM throughout.
On to `CC(=O)CCn1[nH]c(=O)c(Cl)c(Cl)c1=O`, for which the TGI with ACHN renal was greater than 100 µM; with SW-620 colon, 45.3 µM; with OVCAR-5 ovarian, greater than 100 µM; in the assay on RPMI-8226 leukemia it was greater than 100 µM; in the assay on EKVX NSCLC, greater than 100 µM; with NCI-H23 lung, greater than 100 µM. Further, the TGI in the assay with CAKI-1 renal is 28.8 µM; in the assay with UACC-257 melanoma, greater than 100 µM.
For the molecule `CCCCCCCCCCCCCP(=O)(OC)OC`, the TGI is 32.4 µM in the assay on ACHN renal; 32.4 µM with SW-620 colon; 30.6 µM in the assay with OVCAR-5 ovarian; 50.7 µM with RPMI-8226 leukemia; 39.5 µM with EKVX NSCLC; 35.6 µM in the assay with NCI-H23 lung. Besides, the TGI in the assay on CAKI-1 renal is 32.7 µM; in the assay with UACC-257 melanoma, 33.7 µM.
As for `COC(=O)/C(=N\Nc1nc(=S)[nH]n1N)C(C#N)c1ccc(Cl)cc1` (centres undefined), the TGI in the assay on ACHN renal, with SW-620 colon, with OVCAR-5 ovarian, in the assay with RPMI-8226 leukemia, in the assay on EKVX NSCLC and in the assay on NCI-H23 lung was greater than 100 µM in each case. Also, the TGI in the assay on CAKI-1 renal and with UACC-257 melanoma was greater than 100 µM throughout.
In the case of `CC(=O)OC(C)(C)C[N+](=O)[O-]`, the TGI in the assay on ACHN renal, in the assay with SW-620 colon, with OVCAR-5 ovarian, in the assay with RPMI-8226 leukemia, in the assay with EKVX NSCLC and with NCI-H23 lung was greater than 100 µM in each case. In addition, the TGI in the assay on CAKI-1 renal and with UACC-257 melanoma was greater than 100 µM in each case.
Take `COC(=O)/C=C(C)/C=C/c1c(C)c(C(C)=O)c(C)n1C`: the TGI in the assay with ACHN renal, in the assay with SW-620 colon, in the assay with OVCAR-5 ovarian, in the assay with RPMI-8226 leukemia, in the assay on EKVX NSCLC and with NCI-H23 lung was greater than 100 µM throughout. The TGI in the assay with CAKI-1 renal and in the assay with UACC-257 melanoma was greater than 100 µM in each case.
Turning to `Cc1ccc(-c2nc3ccccc3c(=O)n2NC2OC(CO)C(O)C(O)C2O)cc1` (centres undefined), the TGI with ACHN renal, in the assay with SW-620 colon, in the assay on OVCAR-5 ovarian, with RPMI-8226 leukemia, in the assay with EKVX NSCLC and with NCI-H23 lung was greater than 100 µM each time. The TGI with CAKI-1 renal and in the assay on UACC-257 melanoma was greater than 100 µM each time.
`O=C1CS(=O)c2ccccc2N1` (centres undefined): the TGI in the assay on ACHN renal, with OVCAR-5 ovarian, in the assay with RPMI-8226 leukemia, with EKVX NSCLC, with NCI-H23 lung and in the assay on CAKI-1 renal was greater than 100 µM in each case. In the assay on UACC-257 melanoma, this molecule came in with a TGI greater than 100 µM.
Regarding `CCN(CC)CCCNc1nccc2c(C)c3[nH]c4ccncc4c(=O)c3cc12`, the TGI in the assay with ACHN renal amounted to 13 µM; in the assay on SW-620 colon, 16.1 µM; with OVCAR-5 ovarian it was 19.7 µM; in the assay on RPMI-8226 leukemia it was 13.7 µM; with EKVX NSCLC, 35.7 µM; in the assay with NCI-H23 lung it was 7.34 µM. For the same molecule, the TGI in the assay on CAKI-1 renal stood at 16.8 µM; in the assay on UACC-257 melanoma, 31.7 µM.
Regarding `O=C1C(c2ccccc2)=[N+]([O-])c2cc([N+](=O)[O-])ccc21`, the TGI in the assay on ACHN renal was 56.9 µM; in the assay with SW-620 colon, greater than 100 µM; with OVCAR-5 ovarian it was greater than 100 µM; with RPMI-8226 leukemia, 74 µM; in the assay on EKVX NSCLC, 34.5 µM; with NCI-H23 lung it was greater than 100 µM. In the assay on UACC-257 melanoma, this molecule gave a TGI of 40.5 µM.
